Assays:
human TLR9 = target: T1, human TLR9 (Homo sapiens, UniProt Q9NR96); experiment: TLR9 inhibition reporter assay (HEK-Blue cells, SEAP reporter, ODN2006 stimulation); type: cell-based; details: HEK-Blue cells overexpressing human TLR9, ODN2006 5 nM
T1 construct: host or cells: HEK-Blue cells
T1 sequence (Q9NR96 26-1032): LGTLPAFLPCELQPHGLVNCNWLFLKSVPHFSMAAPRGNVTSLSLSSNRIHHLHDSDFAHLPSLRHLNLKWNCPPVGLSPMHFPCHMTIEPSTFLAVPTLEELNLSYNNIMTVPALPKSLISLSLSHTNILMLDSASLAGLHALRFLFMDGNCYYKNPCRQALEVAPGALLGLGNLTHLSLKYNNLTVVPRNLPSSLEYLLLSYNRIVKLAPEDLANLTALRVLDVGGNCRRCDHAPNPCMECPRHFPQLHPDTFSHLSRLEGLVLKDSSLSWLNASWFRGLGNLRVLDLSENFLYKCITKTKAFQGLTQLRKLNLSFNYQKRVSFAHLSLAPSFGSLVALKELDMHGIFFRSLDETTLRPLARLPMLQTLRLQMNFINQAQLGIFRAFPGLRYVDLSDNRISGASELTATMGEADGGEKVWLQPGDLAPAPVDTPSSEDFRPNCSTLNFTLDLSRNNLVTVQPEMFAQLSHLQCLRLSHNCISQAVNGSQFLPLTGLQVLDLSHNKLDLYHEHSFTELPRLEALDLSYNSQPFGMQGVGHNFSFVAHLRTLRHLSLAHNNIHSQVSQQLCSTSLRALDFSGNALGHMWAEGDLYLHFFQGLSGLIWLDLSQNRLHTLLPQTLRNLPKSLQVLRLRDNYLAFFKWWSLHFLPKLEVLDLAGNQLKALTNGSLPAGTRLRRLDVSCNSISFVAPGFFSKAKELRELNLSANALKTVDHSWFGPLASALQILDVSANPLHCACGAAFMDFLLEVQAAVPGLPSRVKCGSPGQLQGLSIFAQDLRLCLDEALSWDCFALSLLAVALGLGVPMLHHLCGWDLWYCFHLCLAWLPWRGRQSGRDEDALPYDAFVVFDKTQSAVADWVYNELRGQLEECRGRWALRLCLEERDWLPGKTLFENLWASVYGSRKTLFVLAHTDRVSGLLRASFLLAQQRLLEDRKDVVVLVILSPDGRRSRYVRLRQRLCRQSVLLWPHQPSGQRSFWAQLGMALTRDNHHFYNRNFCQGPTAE
Summary of the method: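 Screening used HEK-Blue cells overexpressing one human TLR (7, 8 or 9) and an IFN-β minimal promoter–NF-κB/AP-1 SEAP construct. Stimulation lasted 22 h at 37 °C with receptor-specific agonist: gardiquimod, R848 or ODN2006 at 7.5 μM, 15.9 μM and 5 nM.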

[1] = system: MRL/lpr model of Systemic Lupus Erythematosus; experiment: MRL/lpr model of systemic lupus erythematosus (SLE); type: in vivo, mouse; details: MRL/lpr mice, oral once daily 8 weeks
Procedure: MRL/Lpr Model of Systemic Lupus Erythematosus (SLE) Male MRL/lpr mice of 12-14 weeks age were screened and randomized based on the titers of anti-dsDNA antibodies and urinary NGAL (Neutrophil Gelatinase Associated Lipocalin). Mice were treated orally, once daily for 8 weeks with vehicle or test compound. The effect of test compound on disease severity was assessed by measuring end points including proteinuria, urinary-NGAL, anti-dsDNA Ab titer, and lymphadenopathy. These end points were assessed before the start of treatment and after 4 and 8 weeks of treatment. At the end of experiment, all mice were euthanized by CO2 asphyxiation and kidney samples were subjected for histology. At the end of experiment, one way ANOVA with Dunnett's test was performed to calculate the significance of test compound treated group vs. vehicle control group. Percent reduction in disease severity was calculated for each parameter, for test compound treated group vs vehicle control group. A cumulative disease score and the percent reduction in cumulative disease score was calculated by considering the average inhibition in all parameters except lymphadenopathy to reflect the impact on the overall severity of disease progression.

SMILES: COc1ccc(-c2[nH]c3ccc(C4CCN(C(=O)CN(C)C)CC4)cc3c2C(C)C)cc1OC [Example 209, 1-(4-(2-(3,4-dimethoxyphenyl)-3-isopropyl-1H-indol-5-yl)piperidin-1-yl)-2-(dimethylamino)ethan-1-one]
- IC50 (human TLR9): 1660 nM
- % inhibition Anti-dsDNA antibody titer ([1]; dose 1 mg/kg): 44%
- % inhibition Cumulative score ([1]; dose 1 mg/kg): 42%
- % inhibition IL-10 ([1]; dose 1 mg/kg): 10%
- % inhibition IL-12p40 ([1]; dose 1 mg/kg): 13%
- % inhibition Lymphadenopathy ([1]; dose 1 mg/kg): 35%
- % inhibition Proteinuria ([1]; dose 1 mg/kg): 46%
- % inhibition Urinary NGAL ([1]; dose 1 mg/kg): 36%
- % inhibition Anti-dsDNA antibody titer ([1]; dose 2 mg/kg): 57%
- % inhibition Cumulative score ([1]; dose 2 mg/kg): 55%
- % inhibition IL-10 ([1]; dose 2 mg/kg): 22%
- % inhibition IL-12p40 ([1]; dose 2 mg/kg): 24%
- % inhibition Lymphadenopathy ([1]; dose 2 mg/kg): 38%
- % inhibition Proteinuria ([1]; dose 2 mg/kg): 57%
- % inhibition Urinary NGAL ([1]; dose 2 mg/kg): 52%
- % inhibition Anti-dsDNA antibody titer ([1]; dose 5 mg/kg): 67%
- % inhibition Cumulative score ([1]; dose 5 mg/kg): 61%
- % inhibition IL-10 ([1]; dose 5 mg/kg): 36%
- % inhibition IL-12p40 ([1]; dose 5 mg/kg): 18%
- % inhibition Lymphadenopathy ([1]; dose 5 mg/kg): 50%
- % inhibition Proteinuria ([1]; dose 5 mg/kg): 61%
- % inhibition Urinary NGAL ([1]; dose 5 mg/kg): 54%
- % inhibition Anti-dsDNA antibody titer ([1]; dose 7.5 mg/kg): 70%
- % inhibition Cumulative score ([1]; dose 7.5 mg/kg): 67%
- % inhibition IL-10 ([1]; dose 7.5 mg/kg): 36%
- % inhibition IL-12p40 ([1]; dose 7.5 mg/kg): 27%
- % inhibition Lymphadenopathy ([1]; dose 7.5 mg/kg): 58%
- % inhibition Proteinuria ([1]; dose 7.5 mg/kg): 68%
- % inhibition Urinary NGAL ([1]; dose 7.5 mg/kg): 62%

— patent US11180474B2 (BRISTOL-MYERS SQUIBB COMPANY, priority 2016, dated 2021)
